Assay: Binding affinity for delta opioid receptor was determined using radioligand [3H]DPDPE in Guinea pig brain membranes.

Q: Which Ki does the source give for `CCCCC(=N)NCc1ccc2[nH]c3c(c2c1)C[C@@]1(O)C2Cc4ccc(O)c5c4[C@@]1(CCN2CC1CC1)C3O5` (stereo partly drawn) [22-cyclopropylmethyl-7-(1-iminopentylaminomethyl)-(2S)-14-oxa-11,22-diazaheptacyclo[13.9.1.01,13.02,21.04,12.05,10.019,25]pentacosa-4(12),5(10),6,8,15,17,19(25)-heptaene-2,16-diol] here?
A: 5.5 nM

— BindingDB's records for doi:10.1021/jm00053a025 (University of Minnesota, 1993)
